System: Histomonas meleagridis
Experiment: Growth and viability of in vitro cultivated Histomonas meleagridis
Assay type: cell-based
Settings: for Histomonas meleagridis cells counted: extrudate corresponding to 200 μg tetra-hydro-iso-α-acid/ml, dimetridazole 400 μg/ml
Description: The effect of a tetra-hydro-iso-α-acids milled extrudate on the growth of Histomonas meleagridis in vitro was investigated. Therefore, a milled extrudate of tetra-hydro-iso-α-acids (corresponding to an amount of 200 μg tetra-hydro-iso-α-acid/ml), a positive control (dimetridazole, concentration of 400 μg/ml) and a negative control (distilled water without addition of any substance) were used. Histomonas meleagridis cells were counted before and after 24, 48 and 72 hours of incubation.

## Cc1ncc([N+](=O)[O-])n1C [Dimetridazole, dimetridazole]
0 h (before incubation)
  Histomonas meleagridis cells counted: 1 × 10^5
24 h of incubation
  Histomonas meleagridis cells counted: 0
48 h of incubation
  Histomonas meleagridis cells counted: 0
72 h of incubation
  Histomonas meleagridis cells counted: 0
In vitro, versus negative control
  Effect on Histomonas meleagridis cells (in words): total reduction

Source: patent US20250262262A1, “a-ACID AND/OR B-ACID BASED COPOSITIONS FROM HUMULUS FOR USE IN A HUMAN AND/OR VETERINARY APPLICATION” (Orotech NV, priority 2022, published 2025)
